Patent US6984510B2, “Vitamin B6-phosphate phosphatase” (DSM IP Assets B.V., priority 2001, dated 2006)
Read-outs that look alike come from different tables or passages of the source. Blank lines part the entries; values can stand above or below the compound they belong to.

Legend:
VB6PP [1] = target: T1, VB6PP (Sinorhizobium meliloti, UniProt A7BK78); experiment: co-factor requirement of the enzyme to convert VB6P to vitamin B6 (standard enzyme assay); format: biochemical; parameters: Relative activity (%): concentration or dose not given beside the values
VB6PP [2] = target: T1, VB6PP; experiment: substrate specificity of the enzyme (phosphate release, malachite green method); format: biochemical; details: for Relative activity (%): substrate 160 μM final concentration, PNP = 100
Description: After incubation for 30 minutes, the reaction mixture was cooled down into an ice bath. Activity was determined in the following two ways. […] One unit of the enzyme activity was defined as-the amount of enzyme synthesizing 1 μmole of vitamin B6 for 30 minutes in the assay system described above.

[3] = metal salt as co-factor, MnCl2 = 100

T1 sequence (A7BK78 entry or part of it): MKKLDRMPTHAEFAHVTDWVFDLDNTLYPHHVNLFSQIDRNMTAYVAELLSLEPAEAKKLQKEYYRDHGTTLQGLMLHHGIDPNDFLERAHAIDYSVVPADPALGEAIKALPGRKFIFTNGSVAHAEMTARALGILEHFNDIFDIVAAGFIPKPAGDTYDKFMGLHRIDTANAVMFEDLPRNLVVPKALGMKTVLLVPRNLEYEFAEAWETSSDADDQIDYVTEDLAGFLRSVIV

SMILES: [Cl][Sn][Cl] [SnCl2]
- co-factor for conversion of VB6P to vitamin B6 (VB6PP [1]; divalent metal ion): could serve as a co-factor
- Relative activity (%) (VB6PP [1]; [3]): 11%

- Relative activity (%) (VB6PP [2]): 6%
SMILES: Nc1ncnc2c1ncn2[C@@H]1O[C@H](COP(=O)(O)O)[C@@H](O)[C@H]1O [adenosine monophosphate]

- Relative activity (%) (VB6PP [2]): 0%
SMILES: O=C[C@H](O)[C@@H](O)[C@H](O)[C@H](O)COP(=O)(O)O [D-glucose 6-phosphate]

SMILES: N[C@@H](COP(=O)(O)O)C(=O)O [O-phospho-L-serine]
- Relative activity (%) (VB6PP [2]): 0%

- Relative activity (%) (VB6PP [2]): 0%
SMILES: O=C(O)C(O)COP(=O)(O)O (stereo not drawn) [D(−)3-phosphoglyceric acid]

SMILES: Nc1ncnc2c1ncn2[C@@H]1O[C@H](COP(=O)(O)OP(=O)(O)O)[C@@H](O)[C@H]1O [adenosine diphosphate]
- Relative activity (%) (VB6PP [2]): 0%

SMILES: [Cl-].[Cl-].[Co+2] [CoCl2]
- Relative activity (%) (VB6PP [1]): 65%
- co-factor for conversion of VB6P to vitamin B6 (VB6PP [1]): could serve as a co-factor

SMILES: [Cl-].[Cl-].[Mg+2] [MgCl2]
- co-factor for conversion of VB6P to vitamin B6 (VB6PP [1]; divalent metal ion): could serve as a co-factor
- Relative activity (%) (VB6PP [1]; [3]): 88%

- Substrate specificity (VB6PP [2]): active
- Relative activity (%) (VB6PP [2]): 0.1%
SMILES: Cc1ncc(COP(=O)(O)O)c(CN)c1O [PMP, pyridoxamine 5′-phosphate]

SMILES: O=P(O)(O)Oc1cccc2ccccc12 [1-naphthyl phosphate]
- Relative activity (%) (VB6PP [2]): 9%

SMILES: [Cl][Mn][Cl] [MnCl2]
- co-factor for conversion of VB6P to vitamin B6 (VB6PP [1]; divalent metal ion): could serve as a co-factor
- Relative activity (%) (VB6PP [1]; [3]): 100%

SMILES: Nc1ncnc2c1ncn2[C@@H]1O[C@H](COP(=O)(O)OP(=O)(O)OP(=O)(O)O)[C@@H](O)[C@H]1O [adenosine triphosphate]
- Relative activity (%) (VB6PP [2]): 0%

SMILES: O=[N+]([O-])c1ccc(OP(=O)(O)O)cc1 [p-nitrophenyl phosphate]
- Relative activity (%) (VB6PP [2]): 29%

SMILES: [Cl][Ni][Cl] [NiCl2]
- co-factor for conversion of VB6P to vitamin B6 (VB6PP [1]; divalent metal ion): could serve as a co-factor
- Relative activity (%) (VB6PP [1]; [3]): 7%

- Relative activity (%) (VB6PP [2]): 0%
SMILES: O=C(O)COP(=O)(O)O [2-phosphoglycolic acid]

- Substrate specificity (VB6PP [2]): active
- Relative activity (%) (VB6PP [2]): 40%
SMILES: Cc1ncc(COP(=O)(O)O)c(C=O)c1O [PLP, pyridoxal 5′-phosphate]
